{"source": "PubChem BioAssay AID652274", "about": "(Broad Institute, 2013)", "system": "washed human platelets, SFLLRN aggregation after wash, transmittance", "assay": "irreversible platelet aggregation inhibition after washout, late-stage follow-up, mechanism study for PDI inhibitor project, cell-based, aggregometer, SFLLRN stimulus, single point, dry powder (AID 652274)", "settings": "at 30 µM", "note": "Results filed as inconclusive are left out.", "data": [{"smiles": "C/C1=C\\C[C@H](OC(=O)c2ccc(O)cc2)/C(C)=C/[C@@H](O)C(C)(C)CCC1", "values": [{"measurement": "platelet aggregation inhibition after wash (%), stronger effect = higher value", "result": 100, "unit": "%"}]}]}
